Results from patent US9266878B2, “Phosphatidylinositol 3-kinase inhibitors” (Gilead Calistoga LLC, priority 2012, dated 2016).

Key:
Assay in all cases: Enzymatic activity of PI3K isoforms, TR-FRET assay (PIP3 formation)
Format in all cases: biochemical
PI3Kβ = PI3Kβ (Homo sapiens (Human), UniProt P42338)
Procedure, shortened: (§1)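 IC50 (nM) reflects inhibition of PIP3 formation by purified recombinant heterodimeric PI3K, measured as loss of TR-FRET signal. The read-out comes from competition between enzyme-made PIP3 and labelled PIP3 for binding to the GRP-1 pleckstrin homology domain.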

PI3Kγ = PI3Kγ (Homo sapiens (Human), UniProt P48736)
Procedure, shortened: as §1

PI3Kδ = PI3Kδ (Homo sapiens (Human), UniProt O00329); settings: bound given in nM
Chain of PI3Kδ (O00329 whole entry): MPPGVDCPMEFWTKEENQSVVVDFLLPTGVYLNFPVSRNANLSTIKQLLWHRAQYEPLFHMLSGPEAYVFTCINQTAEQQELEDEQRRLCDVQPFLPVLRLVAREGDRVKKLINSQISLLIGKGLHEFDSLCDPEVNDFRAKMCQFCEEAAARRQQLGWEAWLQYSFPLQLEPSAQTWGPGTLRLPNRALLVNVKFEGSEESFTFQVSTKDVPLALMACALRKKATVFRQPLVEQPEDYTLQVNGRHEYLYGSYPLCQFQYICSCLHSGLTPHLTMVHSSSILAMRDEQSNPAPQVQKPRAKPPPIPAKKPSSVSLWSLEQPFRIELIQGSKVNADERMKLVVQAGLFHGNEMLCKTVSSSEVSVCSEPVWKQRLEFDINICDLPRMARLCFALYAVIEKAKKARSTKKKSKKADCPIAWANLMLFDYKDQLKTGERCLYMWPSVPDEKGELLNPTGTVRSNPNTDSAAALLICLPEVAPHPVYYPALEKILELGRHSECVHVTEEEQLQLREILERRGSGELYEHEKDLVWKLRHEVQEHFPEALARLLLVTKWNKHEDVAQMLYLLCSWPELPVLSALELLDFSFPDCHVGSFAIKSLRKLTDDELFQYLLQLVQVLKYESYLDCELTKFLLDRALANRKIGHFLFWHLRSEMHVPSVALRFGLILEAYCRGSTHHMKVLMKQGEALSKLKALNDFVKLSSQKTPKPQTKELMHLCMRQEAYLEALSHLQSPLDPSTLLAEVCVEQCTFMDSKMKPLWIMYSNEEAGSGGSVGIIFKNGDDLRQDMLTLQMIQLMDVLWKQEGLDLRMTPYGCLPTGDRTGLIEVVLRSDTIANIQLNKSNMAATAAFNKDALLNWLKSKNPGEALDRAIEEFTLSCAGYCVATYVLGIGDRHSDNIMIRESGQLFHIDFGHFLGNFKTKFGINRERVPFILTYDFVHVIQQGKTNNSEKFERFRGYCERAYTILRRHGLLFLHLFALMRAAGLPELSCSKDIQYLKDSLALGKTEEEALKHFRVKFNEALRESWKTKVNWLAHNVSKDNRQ
Chain of PI3Kδ (P27986 whole entry partner): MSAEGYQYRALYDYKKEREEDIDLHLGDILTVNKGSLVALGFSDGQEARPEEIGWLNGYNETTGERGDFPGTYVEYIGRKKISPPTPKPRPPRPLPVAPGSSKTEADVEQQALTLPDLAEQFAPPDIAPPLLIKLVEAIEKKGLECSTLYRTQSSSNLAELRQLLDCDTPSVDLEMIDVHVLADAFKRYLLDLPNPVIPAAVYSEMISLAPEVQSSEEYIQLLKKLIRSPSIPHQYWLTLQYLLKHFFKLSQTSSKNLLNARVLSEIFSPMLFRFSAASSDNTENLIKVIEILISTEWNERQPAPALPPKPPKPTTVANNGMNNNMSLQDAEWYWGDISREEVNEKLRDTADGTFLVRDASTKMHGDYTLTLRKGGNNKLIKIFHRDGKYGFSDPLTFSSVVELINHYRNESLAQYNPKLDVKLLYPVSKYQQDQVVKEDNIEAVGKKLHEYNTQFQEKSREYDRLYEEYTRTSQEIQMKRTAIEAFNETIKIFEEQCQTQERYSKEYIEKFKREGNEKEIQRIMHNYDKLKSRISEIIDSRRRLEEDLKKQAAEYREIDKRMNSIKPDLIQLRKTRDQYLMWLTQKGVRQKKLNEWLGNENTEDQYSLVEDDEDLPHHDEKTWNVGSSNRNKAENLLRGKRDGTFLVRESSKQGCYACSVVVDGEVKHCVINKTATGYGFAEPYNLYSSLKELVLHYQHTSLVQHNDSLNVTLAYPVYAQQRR
Procedure, shortened: (§2)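 After 30 min at 25° C, reactions were quenched with 10 mM EDTA plus 10 nM labeled-PIP3 and 35 nM Europium-GRP-1, and TR-FRET was read (Ex 340, Em 615/665 nm). Enzymes were purified recombinant heterodimers; product PIP3 competes off the labeled tracer. Values given as IC50, nM.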

PI3Kα = PI3Kα (Homo sapiens (Human), UniProt P42336)
Chain of PI3Kα (P42336 whole entry): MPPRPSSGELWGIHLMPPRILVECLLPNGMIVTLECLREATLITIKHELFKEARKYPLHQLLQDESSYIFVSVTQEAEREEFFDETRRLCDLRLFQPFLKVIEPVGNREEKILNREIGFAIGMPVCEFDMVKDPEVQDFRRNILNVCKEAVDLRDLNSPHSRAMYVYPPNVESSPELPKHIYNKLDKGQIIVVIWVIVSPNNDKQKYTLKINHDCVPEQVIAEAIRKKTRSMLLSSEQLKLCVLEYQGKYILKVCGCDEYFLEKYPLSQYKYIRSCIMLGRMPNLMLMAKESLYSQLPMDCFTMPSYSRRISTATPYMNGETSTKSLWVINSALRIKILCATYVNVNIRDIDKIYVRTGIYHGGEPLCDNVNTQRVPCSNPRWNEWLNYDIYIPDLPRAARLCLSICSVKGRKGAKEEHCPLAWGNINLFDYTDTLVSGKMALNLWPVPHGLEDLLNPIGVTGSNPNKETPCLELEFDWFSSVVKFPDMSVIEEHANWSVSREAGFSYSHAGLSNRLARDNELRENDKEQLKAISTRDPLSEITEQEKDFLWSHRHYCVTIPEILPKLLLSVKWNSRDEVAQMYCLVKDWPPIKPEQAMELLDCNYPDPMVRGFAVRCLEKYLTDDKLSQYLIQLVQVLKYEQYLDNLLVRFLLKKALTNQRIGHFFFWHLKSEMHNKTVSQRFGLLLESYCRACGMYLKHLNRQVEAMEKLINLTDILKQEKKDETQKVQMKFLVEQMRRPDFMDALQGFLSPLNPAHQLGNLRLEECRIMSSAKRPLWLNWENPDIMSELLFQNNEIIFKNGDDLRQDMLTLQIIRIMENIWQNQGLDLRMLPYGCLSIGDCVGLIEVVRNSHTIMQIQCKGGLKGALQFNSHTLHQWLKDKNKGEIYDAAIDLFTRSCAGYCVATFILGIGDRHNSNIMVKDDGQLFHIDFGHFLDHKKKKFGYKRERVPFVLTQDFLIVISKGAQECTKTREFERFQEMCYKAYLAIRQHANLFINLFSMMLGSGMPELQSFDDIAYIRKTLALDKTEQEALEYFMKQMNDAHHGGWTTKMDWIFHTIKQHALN
Chain of PI3Kα (P27986 whole entry partner): as the sequence (P27986 whole entry partner) above
Procedure, shortened: as §2

Chain of PI3Kβ (P42338 whole entry, the tested form may be a part): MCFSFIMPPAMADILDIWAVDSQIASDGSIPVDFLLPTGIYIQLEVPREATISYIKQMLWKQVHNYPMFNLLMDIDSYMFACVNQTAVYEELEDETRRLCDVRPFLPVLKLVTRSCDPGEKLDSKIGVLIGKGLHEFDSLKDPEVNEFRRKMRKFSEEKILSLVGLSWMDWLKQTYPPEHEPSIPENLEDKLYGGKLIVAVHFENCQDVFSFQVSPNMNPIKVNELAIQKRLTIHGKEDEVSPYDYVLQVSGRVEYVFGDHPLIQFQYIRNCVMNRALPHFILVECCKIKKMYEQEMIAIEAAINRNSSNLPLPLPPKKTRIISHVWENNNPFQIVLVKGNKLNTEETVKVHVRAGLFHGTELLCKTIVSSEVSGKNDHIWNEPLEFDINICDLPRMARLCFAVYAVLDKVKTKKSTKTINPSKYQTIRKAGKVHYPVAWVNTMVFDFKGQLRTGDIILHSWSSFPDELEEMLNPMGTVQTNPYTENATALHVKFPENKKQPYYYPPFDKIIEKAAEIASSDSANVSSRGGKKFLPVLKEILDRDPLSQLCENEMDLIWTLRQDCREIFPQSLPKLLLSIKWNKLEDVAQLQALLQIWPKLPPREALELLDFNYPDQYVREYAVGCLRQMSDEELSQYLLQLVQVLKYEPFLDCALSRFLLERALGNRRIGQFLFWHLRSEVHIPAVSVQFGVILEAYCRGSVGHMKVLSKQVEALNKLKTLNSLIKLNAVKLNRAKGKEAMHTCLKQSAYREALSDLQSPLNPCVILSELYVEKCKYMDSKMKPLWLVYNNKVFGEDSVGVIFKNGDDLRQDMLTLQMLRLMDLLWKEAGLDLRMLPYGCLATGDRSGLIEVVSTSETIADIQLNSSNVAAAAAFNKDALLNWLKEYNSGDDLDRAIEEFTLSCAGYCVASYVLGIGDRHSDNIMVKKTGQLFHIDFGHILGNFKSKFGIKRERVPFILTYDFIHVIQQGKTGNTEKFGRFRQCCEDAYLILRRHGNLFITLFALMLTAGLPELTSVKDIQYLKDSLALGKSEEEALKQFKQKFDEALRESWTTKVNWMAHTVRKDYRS
Chain of PI3Kβ (P27986 whole entry partner, the tested form may be a part): as the sequence (P27986 whole entry partner) above

Row | Compound | IC50 (PI3Kβ; bound given in uM) [µM] | IC50 (PI3Kγ; bound given in uM) [µM] | IC50 (PI3Kδ) [nM] | IC50 (PI3Kα; bound given in uM) [µM] | IC50 (PI3Kβ; bound given in nM) [µM] | IC50 (PI3Kγ; bound given in nM) [µM] | IC50 (PI3Kα; bound given in nM) [µM]
1 | C[C@H](Nc1ncnc(N)c1C#Cc1ccc(F)cn1)c1nc2cccc(F)c2c(=O)n1-c1ccccc1 [Compound 8a, (S)-2-(1-(6-amino-5-((5-fluoropyridin-2-yl)ethynyl)pyrimidin-4-ylamino)ethyl)-5-fluoro-3-phenylquinazolin-4(3H)-one] | > 1 | > 1 | < 100 | > 1 | – | – | –
2 | C[C@H](Nc1ncnc(N)c1C#Cc1cnc(N)cc1C(F)(F)F)c1nc2cccc(Cl)c2c(=O)n1-c1ccccc1 [Compound 18a, (S)-2-(1-(6-amino-5-((6-amino-4-(trifluoromethyl)pyridin-3-yl)ethynyl)pyrimidin-4-ylamino)ethyl)-5-chloro-3-phenylquinazolin-4(3H)-one] | – | – | < 100 | – | < 0.1 | < 0.1 | < 0.1
3 | C[C@H](Nc1ncnc(N)c1C#C[C@@H](C)O)c1nc2cccc(Cl)c2c(=O)n1-c1ccccc1 [Compound 19a, 2-((S)-1-(6-amino-5-((R)-3-hydroxybut-1-ynyl)pyrimidin-4-ylamino)ethyl)-5-chloro-3-phenylquinazolin-4(3H)-one] | > 1 | > 1 | < 100 | > 1 | – | – | –
4 | C[C@H](O)C#Cc1c(N)ncnc1N[C@@H](C)c1nc2cccc(Cl)c2c(=O)n1-c1ccccc1 [Compound 19b, 2-((S)-1-(6-amino-5-((S)-3-hydroxybut-1-ynyl)pyrimidin-4-ylamino)ethyl)-5-chloro-3-phenylquinazolin-4(3H)-one] | > 1 | > 1 | < 100 | > 1 | – | – | –
5 | C[C@H](Nc1ncnc(N)c1C#C[C@@H](C)O)c1nc2cccc(Cl)c2c(=O)n1-c1cc(F)cc(F)c1 [Compound 20a, 2-((S)-1-(6-amino-5-((R)-3-hydroxybut-1-ynyl)pyrimidin-4-ylamino)ethyl)-5-chloro-3-(3,5-difluorophenyl)quinazolin-4(3H)-one] | > 1 | > 1 | < 100 | > 1 | – | – | –
6 | C[C@H](O)C#Cc1c(N)ncnc1N[C@@H](C)c1nc2cccc(Cl)c2c(=O)n1-c1cc(F)cc(F)c1 [Compound 20b, 2-((S)-1-(6-amino-5-((S)-3-hydroxybut-1-ynyl)pyrimidin-4-ylamino)ethyl)-5-chloro-3-(3,5-difluorophenyl)quinazolin-4(3H)-one] | > 1 | > 1 | < 100 | > 1 | – | – | –
7 | C[C@H](Nc1ncnc(N)c1C#CC1CC1)c1nc2cccc(Cl)c2c(=O)n1-c1cc(F)cc(F)c1 [Compound 23a, (S)-2-(1-(6-amino-5-(cyclopropylethynyl)pyrimidin-4-ylamino)ethyl)-5-chloro-3-(3,5-difluorophenyl)quinazolin-4(3H)-one] | > 1 | > 1 | < 100 | > 1 | – | – | –
8 | C[C@H](Nc1ncnc(N)c1C#CC1CC1)c1nc2cccc(Cl)c2c(=O)n1-c1ccccc1 [Compound 24a, (S)-2-(1-(6-amino-5-(cyclopropylethynyl)pyrimidin-4-ylamino)ethyl)-5-chloro-3-phenylquinazolin-4(3H)-one] | > 1 | > 1 | < 100 | > 1 | – | – | –
9 | C[C@H](Nc1ncnc(N)c1C#CC(C)(C)O)c1nc2cccc(Cl)c2c(=O)n1-c1cc(F)cc(F)c1 [Compound 28a, (S)-2-(1-(6-amino-5-(3-hydroxy-3-methylbut-1-ynyl)pyrimidin-4-ylamino)ethyl)-5-chloro-3-(3,5-difluorophenyl)quinazolin-4(3H)-one] | > 1 | > 1 | < 100 | > 1 | – | – | –
10 | C[C@H](Nc1ncnc(N)c1C#CC(C)(C)O)c1nc2cccc(Cl)c2c(=O)n1-c1ccccc1 [Compound 29a, (S)-2-(1-(6-amino-5-(3-hydroxy-3-methylbut-1-ynyl)pyrimidin-4-ylamino)ethyl)-5-chloro-3-phenylquinazolin-4(3H)-one] | > 1 | > 1 | < 100 | > 1 | – | – | –
11 | C[C@H](Nc1ncnc(N)c1C#Cc1cccc(N)n1)c1nc2cccc(Cl)c2c(=O)n1-c1ccccc1 [Compound 31a, (S)-2-(1-(6-amino-5-((6-aminopyridin-2-yl)ethynyl)pyrimidin-4-ylamino)ethyl)-5-chloro-3-phenylquinazolin-4(3H)-one] | – | – | < 100 | – | < 0.1 | < 0.1 | < 0.1
12 | C[C@H](Nc1ncnc(N)c1C#Cc1cnc(N)nc1)c1nc2cccc(Cl)c2c(=O)n1-c1ccccc1 [Compound 33a, (S)-2-(1-(6-amino-5-((2-aminopyrimidin-5-yl)ethynyl)pyrimidin-4-ylamino)ethyl)-5-chloro-3-phenylquinazolin-4(3H)-one] | – | – | < 100 | – | < 0.1 | < 0.1 | < 0.1
13 | C[C@H](Nc1ncnc(N)c1C#Cc1ccc(N)cn1)c1nc2cccc(Cl)c2c(=O)n1-c1ccccc1 [Compound 35a, (S)-2-(1-(6-amino-5-((5-aminopyridin-2-yl)ethynyl)pyrimidin-4-ylamino)ethyl)-5-chloro-3-phenylquinazolin-4(3H)-one] | – | – | < 100 | – | < 0.1 | < 0.1 | < 0.1
14 | C[C@H](Nc1ncnc(N)c1C#Cc1cncnc1)c1nc2cccc(Cl)c2c(=O)n1-c1cc(F)cc(F)c1 [Compound 41a, (S)-2-(1-(6-amino-5-(pyrimidin-5-ylethynyl)pyrimidin-4-ylamino)ethyl)-5-chloro-3-(3,5-difluorophenyl)quinazolin-4(3H)-one] | > 1 | > 1 | < 100 | > 1 | – | – | –
15 | C[C@H](Nc1ncnc(N)c1C#Cc1ccccn1)c1nc2cccc(Cl)c2c(=O)n1-c1cc(F)cc(F)c1 [Compound 45a, (S)-2-(1-(6-amino-5-(pyridin-2-ylethynyl)pyrimidin-4-ylamino)ethyl)-5-chloro-3-(3,5-difluorophenyl)quinazolin-4(3H)-one] | > 1 | > 1 | < 100 | > 1 | – | – | –
16 | C[C@H](Nc1ncnc(N)c1C#Cc1ccc(F)cn1)c1nc2cccc(O)c2c(=O)n1-c1ccccc1 [Compound 52a, (S)-2-(1-((6-amino-5-((5-fluoropyridin-2-yl)ethynyl)pyrimidin-4-yl)amino)ethyl)-5-hydroxy-3-phenylquinazolin-4(3H)-one] | > 1 | > 1 | < 100 | > 1 | – | – | –
17 | Cc1ccc(Cl)c2c(=O)n(-c3ccccc3)c([C@H](C)Nc3ncnc(N)c3C#Cc3ccc(F)cn3)nc12 [Compound 53a, (S)-2-(1-((6-amino-5-((5-fluoropyridin-2-yl)ethynyl)pyrimidin-4-yl)amino)ethyl)-5-chloro-8-methyl-3-phenylquinazolin-4(3H)-one] | > 1 | > 1 | < 100 | > 1 | – | – | –
18 | C[C@H](Nc1ncnc(N)c1C#Cc1cnccn1)c1nc2cccc(C#N)c2c(=O)n1-c1ccccc1 [Compound 55a, (S)-2-(1-((6-amino-5-(pyrazin-2-ylethynyl)pyrimidin-4-yl)amino)ethyl)-4-oxo-3-phenyl-3,4-dihydroquinazoline-5-carbonitrile] | > 1 | > 1 | < 100 | > 1 | – | – | –
19 | Cc1cccc2c(=O)n(-c3ccccc3)c([C@H](C)Nc3ncnc(N)c3C#Cc3ccc(F)cn3)nc12 [Compound 56a, (S)-2-(1-((6-amino-5-((5-fluoropyridin-2-yl)ethynyl)pyrimidin-4-yl)amino)ethyl)-8-methyl-3-phenylquinazolin-4(3H)-one] | > 1 | > 1 | < 100 | > 1 | – | – | –
20 | CCCCc1cccc(-n2c([C@H](C)Nc3ncnc(N)c3C#Cc3ccc(F)cn3)nc3cccc(Cl)c3c2=O)c1 [Compound 57a, (S)-2-(1-((6-amino-5-((5-fluoropyridin-2-yl)ethynyl)pyrimidin-4-yl)amino)ethyl)-3-(3-butylphenyl)-5-chloroquinazolin-4(3H)-one] | > 1 | > 1 | < 100 | > 1 | – | – | –
21 | C[C@H](Nc1ncnc(N)c1C#Cc1ccc(F)cn1)c1nc2cccc(Cl)c2c(=O)n1-c1cccc(-c2ccccc2)c1 [Compound 60a, (S)-3-([1,1′-biphenyl]-3-yl)-2-(1-((6-amino-5-((5-fluoropyridin-2-yl)ethynyl)pyrimidin-4-yl)amino)ethyl)-5-chloroquinazolin-4(3H)-one] | > 1 | > 1 | < 100 | > 1 | – | – | –
22 | CCc1cccc(-n2c([C@H](C)Nc3ncnc(N)c3C#Cc3ccc(F)cn3)nc3cccc(Cl)c3c2=O)c1 [Compound 61a, (S)-2-(1-((6-amino-5-((5-fluoropyridin-2-yl)ethynyl)pyrimidin-4-yl)amino)ethyl)-5-chloro-3-(3-ethylphenyl)quinazolin-4(3H)-one] | > 1 | > 1 | < 100 | > 1 | – | – | –
23 | COc1cc(F)cc(C#Cc2c(N)ncnc2NC(C)c2nc3c(F)ccc(F)c3c(=O)n2-c2ccccc2)c1 (centres unmarked) [Compound 63a, 2-(1-((6-amino-5-((3-fluoro-5-methoxyphenyl)ethynyl)pyrimidin-4-yl)amino)ethyl)-5,8-difluoro-3-phenylquinazolin-4(3H)-one] | > 1 | > 1 | < 100 | > 1 | – | – | –
